Six compounds from US8541395B2 (priority 2009, dated 2013) can be followed below.

One series addresses Kv1.5 (Homo sapiens, UniProt P22460). Description: Patch clamp assay, ion channel inhibition. It counts as cell-based. The conditions noted are these: 2000 μM; n=2. (In general: Patch clamp records ionic current or voltage across a cell membrane.)
The target in the next series is T1, Kir2.1 (Homo sapiens, UniProt P63252).
T1 sequence (P63252 1-427): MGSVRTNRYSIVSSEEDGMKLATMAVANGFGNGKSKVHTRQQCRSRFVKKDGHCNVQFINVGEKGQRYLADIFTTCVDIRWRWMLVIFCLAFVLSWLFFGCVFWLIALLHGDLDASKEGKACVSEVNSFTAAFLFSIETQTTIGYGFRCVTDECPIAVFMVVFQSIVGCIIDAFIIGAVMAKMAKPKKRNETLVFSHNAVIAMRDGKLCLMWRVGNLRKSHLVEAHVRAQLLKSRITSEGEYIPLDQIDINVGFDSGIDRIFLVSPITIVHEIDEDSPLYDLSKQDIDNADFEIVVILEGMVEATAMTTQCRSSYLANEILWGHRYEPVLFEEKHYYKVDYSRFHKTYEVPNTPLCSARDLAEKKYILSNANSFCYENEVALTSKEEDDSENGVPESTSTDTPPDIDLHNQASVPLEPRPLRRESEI
Nature of the series: Patch clamp assay, ion channel inhibition. The settings on record: 100 μM; n=2. It counts as cell-based.

The target in a further series is T2, Kir3.1/3.4 (Homo sapiens, UniProt P48544+P48549).
T2 sequence (P48549 1-501): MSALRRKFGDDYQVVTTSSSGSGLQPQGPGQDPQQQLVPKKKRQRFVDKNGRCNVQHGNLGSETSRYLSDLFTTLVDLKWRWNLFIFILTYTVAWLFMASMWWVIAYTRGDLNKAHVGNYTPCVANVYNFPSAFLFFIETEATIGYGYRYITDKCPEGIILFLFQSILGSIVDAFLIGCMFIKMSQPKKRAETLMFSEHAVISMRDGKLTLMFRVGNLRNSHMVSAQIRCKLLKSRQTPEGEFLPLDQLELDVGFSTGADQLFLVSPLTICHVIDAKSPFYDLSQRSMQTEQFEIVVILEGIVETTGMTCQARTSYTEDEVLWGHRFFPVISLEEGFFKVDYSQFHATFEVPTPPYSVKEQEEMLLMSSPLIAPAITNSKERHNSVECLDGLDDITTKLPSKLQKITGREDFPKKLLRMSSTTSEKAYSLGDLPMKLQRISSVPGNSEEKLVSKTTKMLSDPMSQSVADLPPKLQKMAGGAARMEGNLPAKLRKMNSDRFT
T2 sequence (P48544 1-419): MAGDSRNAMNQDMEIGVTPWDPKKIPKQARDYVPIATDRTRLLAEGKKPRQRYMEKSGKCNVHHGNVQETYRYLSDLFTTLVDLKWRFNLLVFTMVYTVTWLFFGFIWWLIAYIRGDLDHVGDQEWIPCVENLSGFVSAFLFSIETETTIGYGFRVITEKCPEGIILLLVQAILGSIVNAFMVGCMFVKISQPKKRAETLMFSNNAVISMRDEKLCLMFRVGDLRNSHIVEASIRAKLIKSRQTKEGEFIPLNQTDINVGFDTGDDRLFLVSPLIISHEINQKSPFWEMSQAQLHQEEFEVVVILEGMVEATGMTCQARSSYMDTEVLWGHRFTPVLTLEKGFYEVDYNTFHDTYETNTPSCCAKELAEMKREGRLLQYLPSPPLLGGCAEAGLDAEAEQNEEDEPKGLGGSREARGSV
Description: Patch clamp assay, ion channel inhibition. It counts as cell-based. The settings on record: 300 μM; n=2.

Another series deals with Kir6.2/SUR2A (Homo sapiens, UniProt O60706+Q14654). Nature of the series: Patch clamp assay, ion channel inhibition. It counts as cell-based. The conditions noted are these: n=2, read-out: Mean % inhibition (positive control).
Chain of Kir6.2/SUR2A (Q14654 whole entry): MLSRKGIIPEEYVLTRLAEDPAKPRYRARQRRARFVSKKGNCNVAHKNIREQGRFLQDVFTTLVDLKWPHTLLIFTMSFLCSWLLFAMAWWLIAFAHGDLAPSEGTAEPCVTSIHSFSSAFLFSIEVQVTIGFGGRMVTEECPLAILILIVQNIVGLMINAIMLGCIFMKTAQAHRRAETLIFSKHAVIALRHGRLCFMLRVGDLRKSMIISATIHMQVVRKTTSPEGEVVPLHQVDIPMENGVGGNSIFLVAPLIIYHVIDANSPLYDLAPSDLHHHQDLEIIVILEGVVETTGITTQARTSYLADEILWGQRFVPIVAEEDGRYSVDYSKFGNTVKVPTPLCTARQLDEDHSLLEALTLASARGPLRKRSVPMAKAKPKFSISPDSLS
Chain of Kir6.2/SUR2A (O60706 whole entry): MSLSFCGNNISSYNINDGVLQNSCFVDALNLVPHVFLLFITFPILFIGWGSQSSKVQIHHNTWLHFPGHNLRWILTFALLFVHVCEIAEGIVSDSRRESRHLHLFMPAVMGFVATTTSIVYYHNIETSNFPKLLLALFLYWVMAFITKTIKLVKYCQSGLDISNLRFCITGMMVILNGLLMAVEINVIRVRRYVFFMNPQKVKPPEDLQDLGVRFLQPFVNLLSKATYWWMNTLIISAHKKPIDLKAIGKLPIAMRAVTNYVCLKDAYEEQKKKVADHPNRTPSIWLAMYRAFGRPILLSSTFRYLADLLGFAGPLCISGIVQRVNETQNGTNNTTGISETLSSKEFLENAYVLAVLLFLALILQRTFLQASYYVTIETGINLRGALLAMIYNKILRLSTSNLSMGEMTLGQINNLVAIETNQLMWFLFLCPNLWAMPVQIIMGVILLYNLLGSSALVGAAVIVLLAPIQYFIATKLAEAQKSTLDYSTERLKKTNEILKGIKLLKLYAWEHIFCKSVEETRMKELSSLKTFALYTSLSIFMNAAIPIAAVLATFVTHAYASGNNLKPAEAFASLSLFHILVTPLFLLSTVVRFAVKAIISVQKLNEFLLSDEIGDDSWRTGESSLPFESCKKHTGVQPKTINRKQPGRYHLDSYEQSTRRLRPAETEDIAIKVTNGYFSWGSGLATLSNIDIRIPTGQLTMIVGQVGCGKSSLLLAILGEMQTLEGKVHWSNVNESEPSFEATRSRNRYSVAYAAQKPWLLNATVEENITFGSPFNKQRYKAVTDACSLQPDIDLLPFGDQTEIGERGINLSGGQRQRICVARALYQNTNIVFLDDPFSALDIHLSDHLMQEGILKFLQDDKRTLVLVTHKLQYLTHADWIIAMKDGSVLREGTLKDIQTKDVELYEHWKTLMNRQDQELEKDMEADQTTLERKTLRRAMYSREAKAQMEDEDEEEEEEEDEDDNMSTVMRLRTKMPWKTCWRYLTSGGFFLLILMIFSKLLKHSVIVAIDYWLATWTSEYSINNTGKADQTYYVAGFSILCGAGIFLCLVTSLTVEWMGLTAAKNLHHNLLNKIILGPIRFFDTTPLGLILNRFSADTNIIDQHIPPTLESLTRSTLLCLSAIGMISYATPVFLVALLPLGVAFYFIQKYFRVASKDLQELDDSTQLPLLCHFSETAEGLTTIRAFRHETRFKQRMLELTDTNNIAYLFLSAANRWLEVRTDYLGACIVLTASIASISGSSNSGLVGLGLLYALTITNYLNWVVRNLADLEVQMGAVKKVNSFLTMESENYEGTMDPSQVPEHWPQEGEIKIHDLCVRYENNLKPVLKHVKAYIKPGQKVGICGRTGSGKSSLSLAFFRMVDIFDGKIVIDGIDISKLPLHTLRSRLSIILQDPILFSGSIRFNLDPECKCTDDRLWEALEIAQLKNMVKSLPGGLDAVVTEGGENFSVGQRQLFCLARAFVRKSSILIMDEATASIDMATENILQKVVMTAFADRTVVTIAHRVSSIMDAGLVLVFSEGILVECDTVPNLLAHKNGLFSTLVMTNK
The next series deals with left atrium of rats. Nature of the series: Inotropism of isolated rat atrium (cardiac contraction force). The source says:
The left atrium of rats was used to assess the inotropic activity. The data were expressed as contraction force (g of tension), and were compared to the results obtained with bupivacaine.
The application of square pulses (5 V, 5 ms, 2 Hz) in the left atrium with frequency of 120 bpm was sufficient to produce a cardiac contraction force of 0.63±0.09 g of tension.

In a further series the test system is right atrium of rats. Description: Chronotropism of isolated rat atrium (frequency of spontaneous contractions). The source says: The right rat atrium was used to assess the chronotropic activity. The values of the spontaneous mechanical activity of the right atrium were expressed in contractions frequency or beats per minute (bpm). The heart rate was 298±50 contractions per minute in the rat right atrium.

The subject of series [1] is male Swiss mice. Nature of the series: Contortion assay (0.6% acetic acid, abdominal contortions) in mice. The settings on record: for effect of naloxone on the analgesic action: naloxone 5 mg/kg i.p., morphine 10 mg/kg i.p., telocinobufagin 10 mg/kg oral.
Series [2] relates to male Swiss mice. Nature of the series: Tail flick assay. The conditions noted are these: for effect of naloxone on the analgesic action: naloxone 5 mg/kg i.p., morphine 10 mg/kg, telocinobufagin 5 mg/kg oral.
In series [3] the test system is rats with sciatic nerve ligature. Nature of the series: Chronic constrictive injury (CCI) model, allodynia (von Frey). The settings on record: for effect of naloxone on the analgesic action, allodynia: naloxone 5 mg/kg i.p., morphine 10 mg/kg, telocinobufagin 5 mg/kg i.p.; for antinociceptive effect on allodynia: p<0.05.
In series [4] the test system is male Swiss mice. Description: Formalin assay (intraplantar 4% formalin, phases 1 and 2) in mice. The settings on record: for effect of naloxone on the analgesic action, phase 1 / effect of naloxone on the analgesic action, phase 2: naloxone 5 mg/kg i.p., morphine 10 mg/kg, telocinobufagin 5 mg/kg oral.
In series [5] the test system is rats with sciatic nerve ligature. Nature of the series: Chronic constrictive injury (CCI) model, hyperalgesia (Randall & Selitto paw pressure). The conditions noted are these: for effect of naloxone on the analgesic action, hyperalgesia: naloxone 5 mg/kg i.p., morphine 10 mg/kg, telocinobufagin 5 mg/kg i.p.
Series [6] concerns male Swiss mice. Nature of the series: Hot plate assay. The settings on record: for effect of naloxone on the analgesic action: naloxone 5 mg/kg i.p., morphine dose printed as 'mg/kg', telocinobufagin 5 mg/kg oral. (In general: Thermal pain tests record how soon the animal reacts.)

Chain of Kv1.5 (P22460 whole entry): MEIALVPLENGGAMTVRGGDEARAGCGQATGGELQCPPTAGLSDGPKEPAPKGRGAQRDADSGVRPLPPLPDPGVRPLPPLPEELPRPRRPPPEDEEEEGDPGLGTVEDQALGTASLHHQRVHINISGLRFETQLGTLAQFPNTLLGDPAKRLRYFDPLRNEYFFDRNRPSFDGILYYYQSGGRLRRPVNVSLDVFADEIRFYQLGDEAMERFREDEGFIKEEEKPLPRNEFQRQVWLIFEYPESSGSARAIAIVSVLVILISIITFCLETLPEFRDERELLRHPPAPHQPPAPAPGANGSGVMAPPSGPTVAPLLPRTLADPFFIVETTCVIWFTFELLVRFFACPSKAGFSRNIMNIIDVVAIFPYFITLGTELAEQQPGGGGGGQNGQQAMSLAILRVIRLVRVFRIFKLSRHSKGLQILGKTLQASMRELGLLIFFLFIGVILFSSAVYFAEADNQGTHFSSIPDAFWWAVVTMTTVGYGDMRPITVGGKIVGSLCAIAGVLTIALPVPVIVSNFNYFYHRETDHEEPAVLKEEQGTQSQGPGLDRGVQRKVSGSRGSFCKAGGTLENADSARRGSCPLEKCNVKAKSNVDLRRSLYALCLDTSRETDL
Description for Kir3.1/3.4: (§1) The studies were conducted according to the conventional procedures.
(§2) The exposure duration of each channel was 5 minutes. […] Any left current after exposure to this dose was digitally subtracted to eliminate the contribution of any endogenous current.
Description for Kir6.2/SUR2A: as §1, §2
Description for Kv1.5: as §1, §2

As to `Nc1ccncc1` [4-AP], the “Mean % inhibition (positive control)” value on Kv1.5 turned out to be 85.1%.

Take `[Ba]` [Barium]: the “Mean % inhibition (positive control)” value is 85.4% on Kir2.1 and 86.6% at Kir3.1/3.4.

Regarding `COc1ccc(Cl)cc1C(=O)NCCc1ccc(S(=O)(=O)NC(=O)NC2CCCCC2)cc1` [Glibenclamide], the inhibition at 1 µM at Kir6.2/SUR2A was 79.8%.

Turning to `CCCCN1CCCCC1C(=O)Nc1c(C)cccc1C` (centres unmarked) [bupivacaine, reference compound], the cardiac contraction force is on record as 0.13±0.06 g of tension in the series on left atrium of rats (3×10^−5 M, basal 0.63±0.09, mean±SEM, n=6) and “blocked completely the cardiac contraction force to zero” in the series with left atrium of rats (10^−4 M, p<0.05). Further, the “frequency of spontaneous cardiac activity” value in the series with right atrium of rats (3×10^−5 M, basal 298±50, mean±standard error, n=6) stood at 9.6±2.4 bpm. In the series with right atrium of rats (10^−4 M, p<0.05), the “heart rate (frequency of spontaneous cardiac activity)” value is given as “blocked completely the heart rate to zero”.

With `CN1CC[C@]23c4c5ccc(O)c4O[C@H]2[C@@H](O)C=C[C@H]3[C@H]1C5.O=S(=O)(O)O` [morphine, morphine sulfate, reference compound], the “effect of naloxone on the analgesic action” value with male Swiss mice [1], with male Swiss mice [2] and in the series on male Swiss mice [6] was “blocked” each time. For the same compound, in series [3] (intraperitoneal morphine 10 mg/kg), the “reversion of the allodynia (compared to RP)” value is roughly 50%. Further, the “effect of naloxone on the analgesic action, allodynia” value in [3] is listed as “blocked”. For the same compound, in the series on male Swiss mice [4] (phase 1), the “effect of naloxone on the analgesic action, phase 1” value is listed as “blocked”. For the same compound, the “effect of naloxone on the analgesic action, phase 2” value in the series on male Swiss mice [4] (phase 2) is “blocked”. In [5], the “effect of naloxone on the analgesic action, hyperalgesia” value is listed as “blocked”.

As to `C[C@]12CC[C@H](O)C[C@@]1(O)CC[C@@H]1[C@@H]2CC[C@]2(C)[C@@H](c3ccc(=O)oc3)CC[C@]12O` [telocinobufagin, (3β,5β)-3,5,14-trihydroxy-bufa-20,22-dienolide], in the series “Solubility” (50% DMSO (v/v in water)), the “solubility in 50% DMSO” value is reported as “soluble”. The solubility in ethanol result in “Solubility” (ethanol (100%)) is recorded as “soluble”. For the same compound, in the series “Solubility” (pure chloroform), the solubility in chloroform result was “soluble”. Moreover, the solubility in water result in “Solubility” (water) is given as “insoluble”. Further, the “alteration of the cardiac contraction force” value in the series on left atrium of rats (10^−3 M during 12 minutes, p>0.05) is “did not produce significant alteration”. Also, in the series with left atrium of rats (10^−7 to 10^−4 M), the “alteration of the cardiac contraction force compared to the control” value is reported as “no significant alteration”. Further, the “antinociceptive effect compared to the other analgesics” value with male Swiss mice [1] (10 mg/kg oral vs diclofenac 50, dipyrone 50, codeine 20 mg/kg i.p., p<0.05) is “pretty much superior to the effects of the other analgesics”. The “contortions blocked compared to the control group” value in the series with male Swiss mice [1] (10 mg/kg oral, mice, p<0.001) is listed as roughly 90%. Further, the “effect of naloxone on the analgesic action” value in the series on male Swiss mice [1], in the series on male Swiss mice [2] and in the series with male Swiss mice [6] was “did not block” each time. Besides, the “antinociceptive effect, mol to mol, greater than that of morphine” value in the series with male Swiss mice [1] (telocinobufagin 10 mg/kg oral vs morphine sulfate 10 mg/kg i.p.) is recorded as roughly 40%. The “antinociceptive effect (tail flick latency)” value with male Swiss mice [2] (doses of 2.5 and 5 mg/kg oral, p<0.05) is reported as “significant antinociceptive effects”. For the same compound, the “antinociceptive effect on allodynia” value in [3] (5 mg/kg i.p.) and in [3] (20 mg/kg oral) was “blocking completely the allodynia” throughout. Also, the “duration of the analgesic effects on allodynia” value in series [3] (intraperitoneal 5 mg/kg) and in series [3] (oral 20 mg/kg) was “around 6 hours” in each case. Also, the “reversion of the allodynia (compared to RP)” value in series [3] (intraperitoneal TBC 5 mg/kg) and in series [3] (oral TBC 20 mg/kg) was “reverted completely the allodynia” in each case. The “effect of naloxone on the analgesic action, allodynia” value in [3] is reported as “did not block significantly”. The “antinociceptive effect compared to the other analgesics, phase 1” value in the series on male Swiss mice [4] (phase 1, 10 mg/kg oral vs diclofenac 50, dipyrone 50, codeine 20 mg/kg i.p., p<0.05) was “pretty much superior to that of the other analgesics”. Moreover, in the series with male Swiss mice [4] (phase 1, 10 mg/kg oral, p<0.005), the “licks blocked compared to the control group, phase 1” value is given as roughly 80%. Besides, the “effect of naloxone on the analgesic action, phase 1” value with male Swiss mice [4] (phase 1) was “did not block”. Further, the “antinociceptive effect, mol to mol, greater than that of morphine, phase 1” value with male Swiss mice [4] (phase 1, telocinobufagin 10 mg/kg oral vs morphine sulfate 10 mg/kg i.p.) was roughly 40%. In addition, the “antinociceptive effect compared to the other analgesics, phase 2” value in the series with male Swiss mice [4] (phase 2, 5 mg/kg oral vs diclofenac 50, dipyrone 50, codeine 20 mg/kg i.p., p<0.05) is “pretty much superior to that of the other analgesics”. The “licks blocked compared to the control group, phase 2” value in the series on male Swiss mice [4] (phase 2, 10 mg/kg oral, p<0.0001) was roughly 100%. The “effect of naloxone on the analgesic action, phase 2” value in the series on male Swiss mice [4] (phase 2) was “did not block”. The “antinociceptive effect, mol to mol, greater than that of morphine, phase 2” value in the series with male Swiss mice [4] (phase 2, telocinobufagin 5 mg/kg oral vs morphine sulfate 10 mg/kg i.p.) is reported as roughly 58%. In addition, the “duration of the analgesic effects on hyperalgesia” value in series [5] (intraperitoneal 5 mg/kg) and in series [5] (oral 20 mg/kg) was “around 6 hours” each time. Besides, the “increase of the response compared to the control group (RPtest), hyperalgesia” value in series [5] (intraperitoneal 5 mg/kg, p<0.001) was “approximately 9 times”; in series [5] (oral 20 mg/kg, p<0.05), roughly 3.9 times. Further, the “effect of naloxone on the analgesic action, hyperalgesia” value in series [5] is reported as “did not block significantly”. Further, the “antinociceptive effect, mol to mol, greater than that of morphine, hyperalgesia” value in series [5] (telocinobufagin 5 mg/kg i.p. (20 mg/kg oral) vs morphine sulfate 10 mg/kg i.p.) was “approximately 900%”. For the same compound, the “antinociceptive effect compared to the other analgesics, hyperalgesia” value in series [5] (vs diclofenac, codeine, dipyrone, amitriptyline, carbamazepine, prednisone, p<0.05) was “pretty much superior to that of the other analgesics”. For the same compound, in the series on male Swiss mice [6] (oral, dose printed as 'mg/kg' without figure, p<0.001), the “increase of the response (latency) compared to control group” value is on record as “approximately 450%”. In addition, the “alteration of the spontaneous mechanical cardiac activity compared to the control” value with right atrium of rats (10^−7 M to 10^−4 M, n=6, p>0.05) is given as “no significant alteration”.

As a reminder, the inhibition is how much of the control response was suppressed.
